The record followed here is patent publication US11479539B2, “Small molecule modulators of the BTB domain of Keap1” (MedImmune Limited, priority 2017, dated 2022).

For the test, the target named is Keap1 (Homo sapiens (Human), UniProt Q14145). As to the kind of experiment: HEK293 ARE luciferase assay. The conditions noted are these: HEK-293 ARE firefly luciferase transiently transfected cells; 18 h incubation; mean of 1 to 20 individual measurements. It is filed as cell-based. The method in brief:
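Keap1 inhibition read as Nrf2-driven luciferase rise: compounds dosed in 10 points up to 100 μM (0.3% DMSO) on HEK-293 ARE luciferase cells, 10,000/well, 18 h at 37 °C, then SteadyGlo luminescence. Scaled between DMSO vehicle and 30 μM tBHQ; values average 1-20 runs.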

Bounds are passed on as bounds.

Keap1, sequence (Q14145 whole entry): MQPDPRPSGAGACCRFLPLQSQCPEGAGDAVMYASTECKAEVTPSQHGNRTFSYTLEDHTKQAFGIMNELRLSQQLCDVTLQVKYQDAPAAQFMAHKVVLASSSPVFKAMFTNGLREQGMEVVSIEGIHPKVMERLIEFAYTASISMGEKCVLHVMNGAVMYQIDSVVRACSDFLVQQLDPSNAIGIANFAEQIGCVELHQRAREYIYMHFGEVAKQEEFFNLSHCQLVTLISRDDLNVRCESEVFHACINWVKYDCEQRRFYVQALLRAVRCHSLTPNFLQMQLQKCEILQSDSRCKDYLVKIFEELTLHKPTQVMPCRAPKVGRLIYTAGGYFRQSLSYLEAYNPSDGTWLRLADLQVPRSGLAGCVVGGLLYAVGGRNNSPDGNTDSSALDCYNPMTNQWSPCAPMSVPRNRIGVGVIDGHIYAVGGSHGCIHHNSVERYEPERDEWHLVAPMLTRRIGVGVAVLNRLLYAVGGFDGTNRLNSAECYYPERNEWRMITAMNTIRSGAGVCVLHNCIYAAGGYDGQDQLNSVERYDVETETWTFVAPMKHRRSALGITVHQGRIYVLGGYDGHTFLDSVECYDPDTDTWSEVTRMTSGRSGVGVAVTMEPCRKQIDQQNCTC

Take `COC1(c2ncccc2C(F)(F)F)C=C(C#N)C(=O)C(C)(C)C1` (single isomer, unassigned) [Compound 15, 3-methoxy-5,5-dimethyl-6-oxo-3-(3-(trifluoromethyl)pyridin-2-yl)cyclohex-1-enecarbonitrile]: the response was half-maximal at 24 nM (EC50).
The result for `COC1(c2ncc(Cl)cc2C(F)F)C=C(C#N)C(=O)C(C)(C)C1` (single isomer, unassigned) [Compound 45, 3-(5-chloro-3-(difluoromethyl)py-ridin-2-yl)-3-methoxy-5,5-dimethyl-6-oxocyclohex-1-enecarbonitrile] reads 28 nM.
For `COC1(c2ncc(F)cc2-c2cnn3c2CCC3)C=C(C#N)C(=O)C(C)(C)C1` (single isomer, unassigned) [Compound 231, 3-[3-(5,6-dihydro-4H-pyrrolo[1,2-v]pyrazol-3-yl)-5-fluoropyridin-2-yl]-3-methoxy-5,5-dimethyl-6-oxocyclohex-1-ene-1-carbonitrile] the value was 16 nM.
In turn, `COC1(c2ncc(F)cc2-c2cncc(OC(F)F)c2)C=C(C#N)C(=O)C(C)(C)C1` (single isomer, unassigned) [Compound 223, 3-[5′-(difluoromethoxy)-5-fluoro[3,3′-bipyridin]-2-yl]-3-methoxy-5,5-dimethyl-6-oxocyclohex-1-ene-1-carbonitrile] registered an EC50 of 14 nM.
For `COC1(c2cccc(C(F)(F)F)n2)C=C(C#N)C(=O)C(C)(C)C1` (centres unmarked) [Compound 20, 3-methoxy-5,5-dimethyl-6-oxo-3-[6-(trifluoromethyl)-2-pyridyl]cyclo-hexene-1-carbonitrile] the value was 126 nM; for `COC1(c2ncc(F)cc2C(F)F)C=C(C#N)C(=O)C2(CC2)C1` (single isomer, unassigned) [Compound 63, 7-[3-(difluoromethyl)-5-fluoropyridin-2-yl]-7-methoxy-4-oxospiro[2.5]oct-5-ene-5-carbonitrile], 18 nM; for `COC1(c2ccc(C(F)(F)F)cn2)C=C(C#N)C(=O)C(C)(C)C1` (centres unmarked) [Compound 3, 3-methoxy-5,5-dimethyl-6-oxo-3-[5-(trifluoromethyl)-2-pyridyl]cyclohexene-1-carbonitrile], 424 nM.
The compound `COC1(c2cccc(-c3cncnc3)n2)C=C(C#N)C(=O)C(C)(C)C1` (single isomer, unassigned) [Compound 104, 3-methoxy-5,5-dimethyl-6-oxo-3-(6-(pyrimidin-5-yl)pyridin-2-yl)cyclohex-1-ene-1-carbonitrile] showed an EC50 of 45 nM.
The result for `COC1(c2ncc(F)cc2C)C=C(C#N)C(=O)C2(CCCC2)C1` (centres unmarked) [Compound 153, 9-(5-fluoro-3-methylpyridin-2-yl)-9-methoxy-6-oxospiro[4.5]dec-7-ene-7-carbonitrile] reads 7090 nM; that for `COC1(c2ncc(F)cc2-c2cncc(C3CC3)c2)C=C(C#N)C(=O)C(C)(C)C1` (single isomer, unassigned) [Compound 232, 3-(5′-cyclopropyl-5-fluoro[3,3′-bipyridin]-2-yl)-3-methoxy-5,5-dimethyl-6-oxocyclohex-1-ene-1-carbonitrile], 23 nM.
For `COC1(c2ncc(F)cc2-c2cnn(CC(F)(F)F)c2)C=C(C#N)C(=O)C(C)(C)C1` (single isomer, unassigned) [Compound 228, 3-{5-fluoro-3-[1-(2,2,2-trifluoroethyl)-1H-pyrazol-4-yl]pyridin-2-yl}-3-methoxy-5,5-dimethyl-6-oxocyclohex-1-ene-1-carbonitrile] the value was 15 nM.
For `COC1(c2ncccc2C(F)(F)F)C=C(C#N)C(=O)C2(CC2)C1` (single isomer, unassigned) [Compound 57, 7-methoxy-4-oxo-7-[3-(trifluoromethyl)pyridin-2-yl]spiro[2.5]oct-5-ene-5-carbonitrile] the value was 47 nM.
Compound `COC1(c2ncc(F)cc2-c2cccn(C)c2=O)C=C(C#N)C(=O)C(C)(C)C1` (single isomer, unassigned) [Compound 75, 3-[5-fluoro-3-(1-methyl-2-oxo-3-pyridyl)-2-pyridyl]-3-methoxy-5,5-dimethyl-6-oxo-cyclohexene-1-carbonitrile] showed an EC50 of 36 nM.
The result for `COC1(c2ncc(F)cc2C)C=C(C#N)C(=O)C(C)(C)C1` (single isomer, unassigned) [Compound 31, 3-(5-fluoro-3-methylpyridin-2-yl)-3-methoxy-5,5-dimethyl-6-oxocyclohex-1-enecarbonitrile] reads 19 nM.
For `COC1(c2ncc(F)cc2-c2cnn(C3CCCC3)c2)C=C(C#N)C(=O)C(C)(C)C1` (centres unmarked) [Compound 180, 3-[3-(1-cyclopentyl-1H-pyrazol-4-yl)-5-fluoropyridin-2-yl]-3-methoxy-5,5-dimethyl-6-oxocyclohex-1-ene-1-carbonitrile] the value was 115 nM.
The result for `CCOC1(c2ncccc2C(F)(F)F)C=C(C#N)C(=O)C(C)(C)C1` (centres unmarked) [Compound 143, 3-ethoxy-5,5-dimethyl-6-oxo-3-[3-(trifluoromethyl)pyridin-2-yl]cyclohex-1-ene-1-carbonitrile] reads 139 nM; that for `COC1(c2ncc(F)cc2-c2c(C)nn(C)c2C)C=C(C#N)C(=O)C(C)(C)C1` (single isomer, unassigned) [Compound 92, 3-[5-fluoro-3-(1,3,5-trimethylpyrazol-4-yl)-2-pyridyl]-3-methoxy-5,5-dimethyl-6-oxo-cyclohexene-1-carbonitrile], 67 nM; that for `COC1(c2ncc(Cl)cc2F)C=C(C#N)C(=O)C2(CC2)C1` (single isomer, unassigned) [Compound 61, 7-(5-chloro-3-fluoropyridin-2-yl)-7-methoxy-4-oxospiro[2.5]oct-5-ene-5-carbonitrile], 79 nM.
Turning to `COC1(c2ccccn2)C=C(C#N)C(=O)C2(CC2)C1` (centres unmarked) [Compound 135, 7-methoxy-4-oxo-7-(pyridin-2-yl)spiro[2.5]oct-5-ene-5-carbonitrile], the midpoint of the response, the EC50, lay at 244 nM. Compared with the last compound, the EC50 is about 3.1-fold higher.
The result for `CO[C@]1(c2ncc(Cl)cn2)C=C(C#N)C(=O)C(C)(C)C1` [Compound 214, (3S)-3-(5-chloropyrimidin-2-yl)-3-methoxy-5,5-dimethyl-6-oxocyclohex-1-ene-1-carbonitrile] reads 20 nM; that for `COC1(c2cccc(-c3cnc(C)nc3)n2)C=C(C#N)C(=O)C2(CC2)C1` (single isomer, unassigned) [Compound 50, 7-methoxy-7-(6-(2-methylpyrimidin-5-yl)pyridin-2-yl)-4-oxospiro[2.5]oct-5-ene-5-carbonitrile], 30 nM; that for `COC1(c2ncc(F)cc2-c2sc(C)nc2C)C=C(C#N)C(=O)C(C)(C)C1` (centres unmarked) [Compound 195, 3-[3-(2,4-dimethyl-1,3-thiazol-5-yl)-5-fluoropyridin-2-yl]-3-methoxy-5,5-dimethyl-6-oxocyclohex-1-ene-1-carbonitrile], 1300 nM.
Compound `COC1(c2ncc(F)cc2-c2cnn(C3CC3)c2)C=C(C#N)C(=O)C(C)(C)C1` (single isomer, unassigned) [Compound 72, 3-[3-(1-cyclopropyl-1H-pyrazol-4-yl)-5-fluoropyridin-2-yl]-3-methoxy-5,5-dimethyl-6-oxocyclohex-1-ene-1-carbonitrile] yielded an EC50 of 6 nM.
For `COC1(c2ncc(F)cc2-c2sc(C)nc2C)C=C(C#N)C(=O)C(C)(C)C1` (single isomer, unassigned) [Compound 93, 3-[3-(2,4-dimethylthiazol-5-yl)-5-fluoro-2-pyridyl]-3-methoxy-5,5-dimethyl-6-oxo-cyclohexene-1-carbonitrile] the value was 5 nM.
The result for `COC1(c2nccc3ccccc23)C=C(C#N)C(=O)C(C)(C)C1` (centres unmarked) [Compound 4, 3-(1-isoquinolyl)-3-methoxy-5,5-dimethyl-6-oxo-cyclohexene-1-carbonitrile] reads 1140 nM; that for `COC1(c2nc(C)c(-c3ccccn3)s2)C=C(C#N)C(=O)C(C)(C)C1` (centres unmarked) [Compound 155, 3-methoxy-5,5-dimethyl-3-[4-methyl-5-(pyridin-2-yl)-1,3-thiazol-2-yl]-6-oxocyclohex-1-ene-1-carbonitrile], 161 nM.
The result for `COC1(c2ncc(F)cc2-c2cc(C)nc(C)c2)C=C(C#N)C(=O)C(C)(C)C1` (centres unmarked) [Compound 173, 3-(5-fluoro-2′,6′-dimethyl[3,4′-bipyridin]-2-yl)-3-methoxy-5,5-dimethyl-6-oxocyclohex-1-ene-1-carbonitrile] reads 15 nM; that for `COC1(c2ncc(F)cc2-c2cnc3c(c2)OCCN3C)C=C(C#N)C(=O)C(C)(C)C1` (single isomer, unassigned) [Compound 205, 3-[5-fluoro-3-(4-methyl-3,4-dihydro-2H-pyrido[3,2-b][1,4]oxazin-7-yl)pyridin-2-yl]-3-methoxy-5,5-dimethyl-6-oxocyclohex-1-ene-1-carbonitrile], 52 nM.
`COC1(c2ccc(C)cn2)C=C(C#N)C(=O)C(C)(C)C1` (centres unmarked) [Compound 239, 3-methoxy-5,5-dimethyl-3-(5-methylpyridin-2-yl)-6-oxocyclohex-1-ene-1-carbonitrile] registered a concentration giving a half-maximal response (EC50) of 50 nM.
For `CC1(C)CC(O)(c2ncccc2C(F)F)C=C(C#N)C1=O` (centres unmarked) [Compound 6, 3-[3-(difluoromethyl)-2-pyridyl]-3-hydroxy-5,5-dimethyl-6-oxo-cyclohexene-1-carbonitrile] the value was more than 10000 nM; for `COC1(c2ncc(F)cc2-c2cncc(C(F)(F)F)c2)C=C(C#N)C(=O)C(C)(C)C1` (centres unmarked) [Compound 186, 3-[5-fluoro-5′-(trifluoromethyl)[3,3′-bypyridin]-2-yl]-3-methoxy-5,5-dimethyl-6-oxocyclohex-1-ene-1-carbonitrile], 75 nM; for `COC1(c2sccc2C)C=C(C#N)C(=O)C(C)(C)C1` (single isomer, unassigned) [Compound 34, 3-methoxy-5,5-dimethyl-3-(3-methylthiophen-2-yl)-6-oxocyclohex-1-enecarbonitrile], 12 nM.

The EC50 is the concentration needed to bring the measured effect to its halfway point.
